From patent US7875604B2, “Compounds that inhibit HIV particle formation” (University of Virginia Patent Foundation, priority 2004, dated 2011)
Read-outs that look alike come from different tables or passages of the source.

Tests used:
HIV-1 BR/93/021 = assay: Anti-HIV efficacy in fresh human PBMCs, reverse transcriptase readout, HIV-1 BR/93/021; type: cell-based; conditions: for TI (TC50/IC50): HIV-1 BR/93/021, PBMCs; for IC50: HIV-1 BR/93/021, fresh human PBMCs, seven days, RT activity
Experimental: Compounds were evaluated for their ability to inhibit HIV replication in fresh human PBMCs. The assay was performed as follows.
Fresh human PBMCs, seronegative for HIV and HBV, were isolated from screened donors (Interstate Blood Bank, Inc. Memphis, Tenn.). Cells were pelleted/washed 2-3 times by low speed centrifugation and re-suspension in PBS to remove contaminating platelets. The Leukophoresed blood was then diluted 1:1 with Dulbecco's Phosphate Buffered Saline (DPBS) and layered over 14 mL of Lymphocyte Separation Medium (LSM; Cellgro® by Mediatech, Inc.; density 1.078+/−0.002 g/ml; Cat.#85-072-CL) in a 50 mL centrifuge tube and then centrifuged for 30 minutes at 600×g. Banded PBMCs were gently aspirated from the resulting interface and subsequently washed 2× with PBS by low speed centrifugation. After the final wash, cells were enumerated by trypan blue exclusion and re-suspended at 1×10^7 cells/mL in RPMI 1640 supplemented with 15% Fetal Bovine Serum (FBS), and 2 mM L-glutamine, 4 μg/mL Phytohemagglutinin (PHA-P, Sigma). The cells were allowed to incubate for 48-72 hours at 37° C. After incubation, PBMCs were centrifuged and resuspended in RPMI 1640 with 15% FBS, 2 mM L-glutamine, 100 U/mL penicillin, 100 μg/mL streptomycin, 10 μg/mL gentamycin, and 20 U/mL recombinant human IL-2 (R&D Systems, Inc). IL-2 is included in the culture medium to maintain the cell division initiated by the PHA mitogenic stimulation. PBMCs were maintained in this medium at a concentration of 1-2×10^6 cells/mL with biweekly medium changes until used in the assay protocol. Cells were kept in culture for a maximum of two weeks before being deemed too old for use in assays and discarded. Monocytes were depleted from the culture as the result of adherence to the tissue culture flask.
For the standard PBMC assay, PHA-P stimulated cells from at least two normal donors were pooled (mixed together), diluted in fresh medium to a final concentration of 1×10^6 cells/mL, and plated in the interior wells of a 96 well round bottom microplate at 50 μL/well (5×10^4 cells/well) in a standard format developed by the Infectious Disease Research department of Southern Research Institute. Pooling (mixing) of mononuclear cells from more than one donor is used to minimize the variability observed between individual donors, which results from quantitative and qualitative differences in HIV infection and overall response to the PHA and IL-2 of primary lymphocyte populations. Each plate contains virus/cell control wells (cells plus virus), experimental wells (drug plus cells plus virus) and compound control wells (drug plus media without cells, necessary for MTS monitoring of cytotoxicity). Since HIV-1 is not cytopathic to PBMCs, this allows the use of the same assay plate for both antiviral activity and cytotoxicity measurements. Test drug dilutions were prepared at a 2× concentration in microtiter tubes and 100 μL of each concentration was placed in appropriate wells using the standard format. 50 μL of a predetermined dilution of virus stock was placed in each test well (final MOI≅0.1). The PBMC cultures were maintained for seven days following infection at 37° C., 5% CO2. After this period, cell-free supernatant samples were collected for analysis of reverse transcriptase activity as a measure of virus release. Following removal of supernatant samples, compound cytotoxicity was measured by addition of MTS to the plates for determination of cell viability. Wells were also examined microscopically and any abnormalities were noted.
A microtiter plate-based reverse transcriptase (RT) reaction was utilized (Buckheit et al., AIDS Research and Human Retroviruses 7:295-302, 1991). Tritiated thymidine triphosphate (3H-TTP, 80 Ci/mmol, NEN) was received in 1:1 dH2O:Ethanol at 1 mCi/mL. […]

MT4 cells = assay: MTS-based toxicity assay in MT-4 T cell line; conditions: Table 1, read-out: TC50 (the source's name)
Experimental: The dose response assay was performed as follows
MTS-based toxicity assays were performed in parallel to the 3 and 6 point dose response assays.
The six point dose assay in 5BD.1 cells was used to calculate an IC50 for the compounds and data from the MT-4 toxicity assay allowed a TC50 to be calculated.

HIV-1 Rev = target: T1, HIV-1 Rev (Human immunodeficiency virus type 1 group M subtype B, UniProt P04618); assay: cell-based; conditions: for TI (TC50/IC50): Rev assay
T1 construct: expressed in transfected cells
Experimental: The eight compounds listed in Table 1 were also tested in an assay that measured HIV-1 Rev function. […] The reporter used for these assays is the Renilla Luciferase protein, which is an enzyme that produces detectable light when mixed with certain chemicals. For this assay, a cell line has been developed in which the production of the reporter by the cells requires the function of HIV-1 Rev. Therefore, if a drug candidate inhibits the function of Rev, it decreases the amount of the reporter produced by the cells. By using Renilla Luciferase as the reporter, the inhibition of Rev is easily detected as a decrease in the amount of light produced by the cells when mixed with the appropriate chemicals.
Compounds were tested in the Rev assay using the maximum high-test concentration possible based on the supplied stocks as shown in Table 3. Compounds were prepared at a 2× high-test concentration by combining drug stock with tissue culture media at a ratio of 5 μL of drug to 995 μL of media. This 2× high-test sample was subsequently serially diluted in tissue culture media using 1/2 log dilutions. This series of 2× concentrated drug was subsequently diluted 1:1 by combining with an equal volume of cells in media in the 96-well plates used for the assay.

[1] = 50% inhibition of Renilla Luciferase, 24 hours, HeLa reporter line, read-out: IC50
[2] = Human immunodeficiency virus 1, PBMC, 168 h

T1 sequence (P04618 whole entry, looked up): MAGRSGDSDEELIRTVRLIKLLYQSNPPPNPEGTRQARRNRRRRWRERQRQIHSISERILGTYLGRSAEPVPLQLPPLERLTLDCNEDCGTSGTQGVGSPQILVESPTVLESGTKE

2-chloro-N-(4-methylphenyl)-4-(trifluoromethyl)-1,3-thazole-5-carboxamide [Compound 91161]
TI (TC50/IC50) (HIV-1 BR/93/021): 12.01 | IC50 (HIV-1 BR/93/021): 1.94 µM | CC50 (MT4 cells): 18 µM | IC50 (HIV-1 Rev; [1]): 9.73 µM | TI (TC50/IC50) (HIV-1 Rev): >4.06

CCc1c(C(=O)Nc2ccccc2)c(C)nc2sc(C(N)=O)c(N)c12 [Compound 75168, 3-amino-4-ethyl-6-methyl-N˜5˜-phenylthieno[2,3-b]pyridine-2,5-dicarboxamide]
TI (TC50/IC50) (HIV-1 BR/93/021): >12.52 | IC50 (HIV-1 BR/93/021; [2]): 2.14 µM | CC50 (MT4 cells): > 100 µM | IC50 (HIV-1 Rev; [1]): 2.42 µM | TI (TC50/IC50) (HIV-1 Rev): 3.27

COc1ccc2cc3c(N)n[nH]c3nc2c1 [Compound 89246, 7-methoxy-1H-pyrazolo[3,4-b]quinolin-3-ylamine]
TI (TC50/IC50) (HIV-1 BR/93/021): 69.57 | IC50 (HIV-1 BR/93/021; [2]): 0.47 µM | CC50 (MT4 cells): 20 µM | IC50 (HIV-1 Rev; [1]): 0.48 µM | TI (TC50/IC50) (HIV-1 Rev): 17.52

CCc1c(C)nc2sc(C(N)=O)c(N)c2c1C [Compound 103833, 3-amino-5-ethyl-4,6-dimethylthieno[2,3-b]pyridine-2-carboxamide]
TI (TC50/IC50) (HIV-1 BR/93/021): >129.66 | IC50 (HIV-1 BR/93/021; [2]): 0.29 µM | CC50 (MT4 cells): 32 µM | IC50 (HIV-1 Rev): 1.07 µM

COc1ccc2nc(C(F)(F)F)c(C#N)c(N)c2c1 [Compound 104366, 4-amino-6-methoxy-2-(trifluoromethyl)-3-quinolinecarbonitrile]
TI (TC50/IC50) (HIV-1 BR/93/021): 38.91 | IC50 (HIV-1 BR/93/021; [2]): 0.64 µM | CC50 (MT4 cells): 28 µM | IC50 (HIV-1 Rev; [1]): 2.24 µM | TI (TC50/IC50) (HIV-1 Rev): 7.68

CS(=O)(=O)c1ncc(-c2ccc(Br)cc2)cn1 [Compound 107129, -(4-bromophenyl)-2-(methylsulfonyl)pyrimidine]
TI (TC50/IC50) (HIV-1 BR/93/021): 3.48 | IC50 (HIV-1 BR/93/021; [2]): 1.8 µM | CC50 (MT4 cells): 10 µM | IC50 (HIV-1 Rev; [1]): 7.48 µM | TI (TC50/IC50) (HIV-1 Rev): 4.13

COc1cccc(NC(=O)c2cc(Cl)nnc2Cl)c1 [Compound 107740, 3,6-dichloro-N-(3-methoxyphenyl)-4-pyridazinecarboxamide]
TI (TC50/IC50) (HIV-1 BR/93/021): 94.00 | IC50 (HIV-1 BR/93/021; [2]): 0.2 µM | CC50 (MT4 cells): 50 µM | IC50 (HIV-1 Rev; [1]): 8 µM | TI (TC50/IC50) (HIV-1 Rev): 2.31

Fc1ccc(Nc2ncnc3ccccc23)cc1Cl [Compound 109020, N-(3-chloro-4-fluorophenyl)-N-(4-quinazolinyl)amine]
TI (TC50/IC50) (HIV-1 BR/93/021): >3.09 | IC50 (HIV-1 BR/93/021; [2]): 13.2 µM | IC50 (HIV-1 Rev): 8.98 µM | TI (TC50/IC50) (HIV-1 Rev): >4.54
